Results on two compounds are retold here after patent publication US8598145B2, “Mitochondrially delivered anti-cancer compounds” (priority 2008, dated 2013).

The test system of data set [1] is malignant cells. Nature of the data set: Apoptosis assays of FIG. 2 (Annexin V method). The class given is cell-based. As to the method:
Jurkat (A, G), HCT-116 (B), MCF-7 (C), MDA-MB-453 (D), and Meso-2 cells (E) were exposed to MitoVES at concentrations 1-50 μM (A-F), or to VES4TPP or α-TOS at 50 μM (B). At the times shown, the cells were harvested and assessed for apoptosis. […] Apoptosis data shown are derived from three independent experiments and are presented as mean values±S.D., the micrographs are representative images of at least three independent experiments.
Toxicity of α-TOS, VE11S (“VES”), MitoVE3S, MitoVE5S, MitoVE7S, MitoVE9S, MitoVE11S (“MitoVES”), MitoVE11AE (“MitoVEAE”), MitoVE11F (“MitoVEF”), MitoVE11M (“MitoVEM”), and VES4TPP towards cancer cells was assessed on the basis of IC50, as detailed in Turanek, J., et al. ((2008). Liposomal formulation of vitamin E analogs as an efficient and selective anti-cancer treatment. Clin. Cancer Res. (submitted)). […]

In data set [2] the test system is breast carcinomas. Briefly: Spontaneous ductal breast carcinomas in transgenic mice (FIG. 9). The class given is in vivo, FVB/N c-neu mice. As to the method: The transgenic FVB/N c-neu female mice with spontaneous small breast carcinomas were treated with MitoVES at 3 μmol per mouse per dose and the tumour volume was assessed by repeated ultrasound imaging, monitoring tumour growth over several weeks.
For this purpose, the transgenic FVB/N c-neu mice that form spontaneous ductal breast carcinomas due to high level of expression of the oncogene, HER2 were used as a cancer model.

The conditions of data set [3]: cited from earlier work.

In general, pKa refers to the pH at which an ionisable group is half protonated.

Each structure is given as a SMILES string. Read-outs that look alike come from different tables or passages of the source.

Regarding `Cc1c(C)c2c(c(C)c1OC(=O)CCC(=O)[O-])CCC(C)(CCCCCCCCCCC[P+](c1ccccc1)(c1ccccc1)c1ccccc1)O2` (stereo not drawn) [MitoVE11S], the “apoptosis in malignant versus normal equivalent cell types” value in data set [1] (FIG. 2, exception dividing endothelial cells) is “causes apoptosis selectively in malignant cells”. In addition, in data set [1] (relative to α-TOS), the “fold more apoptogenic / more active than α-TOS in cancer cells” value is “up to 50 fold”. Besides, the “progression of breast cancer tumours” value in data set [2] (3 μmol per mouse per dose, tumour volume by ultrasound imaging) was “completely blocked progression”. Moreover, the “toxicity in treated animals” value in data set [2] (FVB/N c-neu mice) is “no obvious sign of toxicity”. In data set [2] (relative to α-TOS), the “fold lower concentrations than needed for corresponding activity of α-TOS” value is listed as roughly 10 fold.
Consider `Cc1c(C)c2c(c(C)c1OC(=O)CCC(=O)O)CC[C@@](C)(CCC[C@H](C)CCC[C@H](C)CCCC(C)C)O2` [α-TOS, α-tocopheryl succinate, reference compound], for which the “fold higher percentage in the protonated form” value in data set [3] (acidic pH of 6.2-6.4 of the tumour interstitium versus neutral pH) is on record as 10-15 fold. For the same compound, in data set [3] (at neutral pH), the fraction deprotonated was roughly 98%. The pKa is recorded as less than 6 in data set [3] and 5.6 in data set [3] (listed as α-tocopheryl succinate).
